The text below walks through data of patent publication US8053578B2, “Alpha-fluoroalkyl dihydrotetrabenazine imaging agents and probes” (General Electric Company, priority 2007, dated 2011).

The target of this experiment is T1, VMAT-2 (Homo sapiens, UniProt Q05940).
T1 construct: Novascreen Biosciences Corporation (contract assay provider) protocol Cat. No. 100-0751
Description: VMAT-2 binding affinity measurement (Novascreen protocol Cat. No. 100-0751). To be noted: for Ki: Novascreen Biosciences protocol Cat. No. 100-0751; for VMAT-2 binding affinity, in words, relative to (+)-DTBZ control (Compound 18): summary of the Table 9 data. The procedure: In addition, the VMAT-2 binding affinity of a fluoroalkyl tetrabinazine carbinol compound 38 bearing an acetoxy group at ring position-2 was also measured. VMAT-2 binding affinity measurements were carried out by Novascreen Biosciences Corporation (Hanover, Md., USA) using protocol Cat. No. 100-0751. Novascreen, Inc. is a commercial provider of biological assays for the pharmaceutical industry.

T1 sequence (Q05940 whole entry, species assumed): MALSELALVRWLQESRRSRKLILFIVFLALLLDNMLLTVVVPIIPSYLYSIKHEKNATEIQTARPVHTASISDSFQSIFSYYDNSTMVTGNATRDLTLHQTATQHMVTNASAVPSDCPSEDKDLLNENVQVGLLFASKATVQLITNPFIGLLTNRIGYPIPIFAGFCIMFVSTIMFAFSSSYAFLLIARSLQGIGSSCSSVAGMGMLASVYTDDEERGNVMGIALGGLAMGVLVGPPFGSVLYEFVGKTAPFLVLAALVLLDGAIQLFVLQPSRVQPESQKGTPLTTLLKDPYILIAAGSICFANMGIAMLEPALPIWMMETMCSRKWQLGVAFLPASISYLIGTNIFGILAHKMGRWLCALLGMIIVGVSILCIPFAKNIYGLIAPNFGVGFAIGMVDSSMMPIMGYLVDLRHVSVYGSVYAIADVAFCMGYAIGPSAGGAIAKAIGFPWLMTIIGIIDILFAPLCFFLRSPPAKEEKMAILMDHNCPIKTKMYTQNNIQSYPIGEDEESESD

What is called Ki is the dissociation constant of the complex between target and ligand, obtained from inhibition or displacement. Higher therefore signals a looser hold on the target. For `COc1cc2c(cc1OC)[C@H]1C[C@@H](O)[C@H](CCCC[19F])CN1CC2` [Compound 31], the Ki came to 6.4 nM and the “VMAT-2 binding affinity, in words, relative to (+)-DTBZ control (Compound 18)” value is “very high binding affinity”.

Turning to `COc1cc2c(cc1OC)[C@H]1C[C@@](C#CCF)(OC(C)=O)[C@H](CC(C)C)CN1CC2` [Compound 38], the “VMAT-2 binding affinity, in words, relative to (+)-DTBZ control (Compound 18)” value is recorded as “somewhat lower yet still robust binding activity”.

Consider `COc1cc2c(cc1OC)[C@H]1C[C@H](O)[C@H](CC(C)(C)CC[19F])CN1CC2` [Compound 2-epi-32], for which the affinity corresponds to a Ki of 2.6 nM and the “VMAT-2 binding affinity, in words, relative to (+)-DTBZ control (Compound 18)” value was “very high binding affinity”.

For `COc1cc2c(cc1OC)[C@H]1C[C@](O)(C#CCF)[C@H](CC(C)C)CN1CC2` [Compound 39], the “VMAT-2 binding affinity, in words, relative to (+)-DTBZ control (Compound 18)” value is given as “somewhat lower yet still robust binding activity”.

As to `COc1cc2c(cc1OC)[C@H]1C[C@@H](O)[C@H](CC(C)(C)CC[19F])CN1CC2` [Compound 32], the affinity, expressed as Ki, was 0.45 nM and the “VMAT-2 binding affinity, in words, relative to (+)-DTBZ control (Compound 18)” value was “very high binding affinity”.
